Series [1] has as its system mRNA transcript for the ApoB gene. Briefly: Rat in vivo evaluation of efficacy (liver ApoB mRNA by quantitative RT-PCR). As to conditions: Sprague-Dawley female rats, ApoB siRNA RDV tail vein injected, necropsy 24 hours after dosing; compared with RDV containing octyl-CLinDMA; FIG. 2. How it is done:
(§1) Six hours post dose, food is removed from the cages. Animal necropsy is performed 24 hours after LNP dosing. Rats are anesthetized under isoflurane for 5 minutes, then maintained under anesthesia by placing them in nose cones continuing the delivery of isoflurane until ex-sanguination is completed. Blood is collected from the vena cava using a 23 gauge butterfly venipuncture set and aliquoted to serum separator vacutainers for serum chemistry analysis. Punches of the excised caudate liver lobe are taken and placed in RNALater (Ambion) for mRNA analysis. Preserved liver tissue was homogenized and total RNA isolated using a Qiagen bead mill and the Qiagen miRNA-Easy RNA isolation kit following the manufacturer's instructions. Liver ApoB mRNA levels were determined by quantitative RT-PCR. Message was amplified from purified RNA utilizing a rat ApoB commercial probe set (Applied Biosystems Cat # RN01499054_m1). The PCR reaction was performed on an ABI 7500 instrument with a 96-well Fast Block. The ApoB mRNA level is normalized to the housekeeping PPIB (NM 011149) mRNA. PPIB mRNA levels were determined by RT-PCR using a commercial probe set (Applied Biosystems Cat. No. Mm00478295_m1). Results are expressed as a ratio of ApoB mRNA/PPIB mRNA. All mRNA data is expressed relative to the PBS control dose. […]

Series [2] is described as follows: Rat in vivo toxicity (serum ALT and AST). As to conditions: Sprague-Dawley female rats, serum 24 hours after LNP dosing; compared with RDV containing octyl-CLinDMA; FIG. 3. How it is done: as §1
Series [3] relates to mRNA transcript for the firefly (Photinus pyralis) luciferase gene. Briefly: Mouse in vivo evaluation of efficacy (luciferase mouse model, liver luminescence by IVIS imaging). As to conditions: LSL-Luc transgenic mice, Luc siRNA RDVs tail vein injected, 0.3 to 3 mg/kg siRNA, imaged 48 hours post dose; compared with RDV containing octyl-CLinDMA (OCD); FIG. 1. How it is done:
LNPs utilizing Compounds 1-2, in the nominal compositions described immediately above, were evaluated for in vivo efficacy and induction of inflammatory cytokines in a luciferase mouse model. The siRNA targets the mRNA transcript for the firefly (Photinus pyralis) luciferase gene (Accession #M15077). […] The in vivo luciferase model employs a transgenic mouse in which the firefly luciferase coding sequence is present in all cells. ROSA26-LoxP-Stop-LoxP-Luc (LSL-Luc) transgenic mice licensed from the Dana Farber Cancer Institute are induced to express the Luciferase gene by first removing the LSL sequence with a recombinant Ad-Cre virus (Vector Biolabs). Due to the organo-tropic nature of the virus, expression is limited to the liver when delivered via tail vein injection. Luciferase expression levels in liver are quantitated by measuring light output, using an IVIS imager (Xenogen) following administration of the luciferin substrate (Caliper Life Sciences). Pre-dose luminescence levels are measured prior to administration of the RDVs. Luciferin in PBS (15 mg/mL) is intraperitoneally (IP) injected in a volume of 150 μL. […] In vivo efficacy results are expressed as % inhibition of luminescence relative to pre-dose luminescence levels. Plasma cytokine levels were determined using the SearchLight multiplexed cytokine chemiluminescent array (Pierce/Thermo). […]

On to `CCCCC/C=C\C/C=C\CCCCCCCCOC[C@H](COCCCCCCCC)N(C)C` [Compound 1, S-N,N-dimethyl-1-[(9Z,12Z)-octadeca-9,12-dien-1-yloxy]-3-(octyloxy)propan-2-amine], for which, in series [1], the “In vivo efficacy, liver ApoB mRNA/PPIB mRNA relative to the PBS control dose” value is given as “Greater efficacy”. Also, the “Elevations in LFTs (ALT/AST)” value in series [2] is given as “lower elevations in LFTs (ALT/AST)”. The “In vivo efficacy, % inhibition of luminescence relative to pre-dose luminescence levels” value in series [3] is recorded as “Greater efficacy”.
